Calls of active or inactive are those of the source. The rule behind the calls is not given here.
Columns and labels:
HCT-116 [1] = test: Antiproliferative activity against human HCT-116 cells assessed as reduction in cell viability measured after 72 hrs by MTT assay; type: functional, cell-based
A549 [2] = test: Antiproliferative activity against human A549 cells assessed as reduction in cell viability measured after 72 hrs by MTT assay; type: functional, cell-based
4T1 [3] = test: Antiproliferative activity against mouse 4T1 cells assessed as reduction in cell viability measured after 72 hrs by MTT assay; type: functional, cell-based
HepG2 [4] = test: Antiproliferative activity against human HepG2 cells assessed as reduction in cell viability measured after 72 hrs by MTT assay; type: functional, cell-based
HCT-116 [5] = test: Antiproliferative activity against human HCT-116 cells assessed as reduction in cell viability measured after 72 hrs in presence of beta-glucuronidase by MTT assay; type: functional, cell-based
A549 [6] = test: Antiproliferative activity against human A549 cells assessed as reduction in cell viability measured after 72 hrs in presence of beta-glucuronidase by MTT assay; type: functional, cell-based
4T1 [7] = test: Antiproliferative activity against mouse 4T1 cells assessed as reduction in cell viability measured after 72 hrs in presence of beta-glucuronidase by MTT assay; type: functional, cell-based
HepG2 [8] = test: Antiproliferative activity against human HepG2 cells assessed as reduction in cell viability measured after 72 hrs in presence of beta-glucuronidase by MTT assay; type: functional, cell-based
[9] = Drug uptake in human HCT-116 cells assessed as increase in fluorescence intensity measured after 1 to 6 hrs by confocal microscopy analysis; type: ADME, cell-based; details: time 1-6 hrs
HCT-116 [10] = test: Antiproliferative activity against human HCT-116 cells assessed as reduction in cell viability treated with HSA bound prodrug measured after 72 hrs by MTT assay; type: functional, cell-based
A549 [11] = test: Antiproliferative activity against human A549 cells assessed as reduction in cell viability treated with HSA bound prodrug measured after 72 hrs by MTT assay; type: functional, cell-based
BXPC-3 [12] = test: Antiproliferative activity against human BXPC-3 cells assessed as reduction in cell viability treated with HSA bound prodrug measured after 72 hrs by MTT assay; type: functional, cell-based
HepG2 [13] = test: Antiproliferative activity against human HepG2 cells assessed as reduction in cell viability treated with HSA bound prodrug measured after 72 hrs by MTT assay; type: functional, cell-based
4T1 [14] = test: Antiproliferative activity against mouse 4T1 cells assessed as reduction in cell viability treated with HSA bound prodrug measured after 72 hrs by MTT assay; type: functional, cell-based
HCT-116 [15] = test: Antiproliferative activity against human HCT-116 cells assessed as reduction in cell viability treated with HSA bound prodrug measured after 72 hrs in presence of beta-glucuronidase by MTT assay; type: functional, cell-based
A549 [16] = test: Antiproliferative activity against human A549 cells assessed as reduction in cell viability treated with HSA bound prodrug measured after 72 hrs in presence of beta-glucuronidase by MTT assay; type: functional, cell-based
BXPC-3 [17] = test: Antiproliferative activity against human BXPC-3 cells assessed as reduction in cell viability treated with HSA bound prodrug measured after 72 hrs in presence of beta-glucuronidase by MTT assay; type: functional, cell-based
HepG2 [18] = test: Antiproliferative activity against human HepG2 cells assessed as reduction in cell viability treated with HSA bound prodrug measured after 72 hrs in presence of beta-glucuronidase by MTT assay; type: functional, cell-based
4T1 [19] = test: Antiproliferative activity against mouse 4T1 cells assessed as reduction in cell viability treated with HSA bound prodrug measured after 72 hrs in presence of beta-glucuronidase by MTT assay; type: functional, cell-based
[20] = Half life in female BALB/c mouse at 38 mg/kg measured up to 168 hrs by HPLC analysis; type: ADME, organism-based; details: in vivo
HCT-116 [21] = test: Antitumor activity against human HCT-116 cells xenografted in female BALB/cA nude mouse model assessed as relative tumor proliferation rate at 38 mg/kg, iv administered twice per week measured after 107 days; type: functional, organism-based; details: time 107.0 day
[22] = Toxicity in female BALB/cA nude mouse assessed as damage in lung at 38 mg/kg, iv measured after 24 hrs by H and E staining based analysis; type: organism-based; details: in vivo
HCT-116 [23] = test: Antitumor activity against human HCT-116 cells xenografted in female BALB/cA nude mouse model assessed as increase in tumor cell apoptosis by measuring increase in red fluorescence at 38 mg/kg, iv by TUNEL analysis; type: functional, organism-based
[24] = Toxicity in female BALB/cA nude mouse assessed as effect on body weight loss at 38 mg/kg, iv administered once a week for 35 days; type: organism-based; details: in vivo, 840 h, time 35 day
[25] = Toxicity in female BALB/cA nude mouse assessed as appearance of inflammatory lesions in liver at 38 mg/kg, iv administered once a week for 35 days by H and E staining based analysis; type: organism-based; details: in vivo, 840 h, time 35 day
[26] = Toxicity in female BALB/cA nude mouse assessed as appearance of inflammatory lesions in kidney at 38 mg/kg, iv administered once a week for 35 days by H and E staining based analysis; type: organism-based; details: in vivo, 840 h, time 35 day
[27] = Toxicity in female BALB/cA nude mouse assessed as fibrotic changes in kidney at 38 mg/kg, iv administered once a week for 35 days by H and E staining based analysis; type: organism-based; details: in vivo, 840 h, time 35 day
Albumin [28] = target: T1, Albumin (Homo sapiens, UniProt P02768); test: Binding affinity to human serum albumin assessed as binding rate measured within 4 mins by HPLC analysis relative to control; type: ADME; details: isolated protein
T1 sequence (P02768 whole entry): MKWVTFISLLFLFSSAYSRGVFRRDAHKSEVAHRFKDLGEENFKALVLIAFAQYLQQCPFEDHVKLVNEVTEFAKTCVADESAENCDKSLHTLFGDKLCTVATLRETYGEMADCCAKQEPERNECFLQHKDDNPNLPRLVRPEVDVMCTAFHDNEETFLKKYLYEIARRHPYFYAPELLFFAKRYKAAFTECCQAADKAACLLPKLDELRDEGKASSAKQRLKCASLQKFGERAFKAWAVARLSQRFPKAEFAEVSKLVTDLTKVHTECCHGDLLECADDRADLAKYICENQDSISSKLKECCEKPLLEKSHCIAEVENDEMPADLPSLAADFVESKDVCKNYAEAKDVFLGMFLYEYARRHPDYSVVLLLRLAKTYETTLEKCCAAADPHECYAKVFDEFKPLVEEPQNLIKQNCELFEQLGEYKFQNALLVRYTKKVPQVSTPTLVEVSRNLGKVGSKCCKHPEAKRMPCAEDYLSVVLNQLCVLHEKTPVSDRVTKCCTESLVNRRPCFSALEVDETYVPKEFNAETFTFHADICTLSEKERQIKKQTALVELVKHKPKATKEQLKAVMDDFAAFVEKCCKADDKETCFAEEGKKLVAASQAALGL

Albumin [29] = target: T1, Albumin; test: Binding affinity to human serum albumin assessed as binding rate measured after 24 mins by HPLC analysis relative to control; type: ADME; details: isolated protein, 0.4 h
[30] = Prodrug release in human plasma assessed as (S)-4,11-diethyl-4,9-dihydroxy-1,12-dihydro-14H-pyrano[3',4':6,7]indolizino[1,2-b]quinoline-3,14(4H)-dione release measured after 7 days relative to control; type: ADME, cell-free; details: 168 h, time 7 day
[31] = Toxicity in female BALB/cA nude mouse assessed as mortality at 25 mg/kg, iv administered twice per week measured after 107 days; type: organism-based; details: in vivo, 2568 h, time 107 day
[32] = Toxicity in female BALB/cA nude mouse assessed as effect on body weight loss at 25 mg/kg, iv administered twice per week measured after 107 days; type: organism-based; details: in vivo, 2568 h, time 107 day
BXPC-3 [33] = test: Antitumor activity against human BXPC-3 cells xenografted in female BALB/cA nude mouse model assessed as suppression of tumor growth by measuring relative tumor proliferation rate at 25 mg/kg, iv measured after 24 days relative to control; type: functional; details: time 24 day
[34] = Toxicity in female BALB/cA nude mouse assessed as appearance of inflammatory lesions in heart at 25 mg/kg, iv administered once a week for 35 days by H and E staining based analysis; type: organism-based; details: in vivo, 840 h, time 35 day
[35] = Toxicity in female BALB/cA nude mouse assessed as fibrotic changes in heart at 25 mg/kg, iv administered once a week for 35 days by H and E staining based analysis; type: organism-based; details: in vivo, 840 h, time 35 day
[36] = Toxicity in female BALB/cA nude mouse assessed as fibrotic changes in liver at 25 mg/kg, iv administered once a week for 35 days by H and E staining based analysis; type: organism-based; details: in vivo, 840 h, time 35 day
[37] = Toxicity in female BALB/cA nude mouse assessed as fibrotic changes in kidney at 25 mg/kg, iv administered once a week for 35 days by H and E staining based analysis; type: organism-based; details: in vivo, 840 h, time 35 day
[38] = Toxicity in female BALB/cA nude mouse assessed as effect on body weight loss at 25 mg/kg, iv administered once a week for 35 days; type: organism-based; details: in vivo, 840 h, time 35 day

SMILES | Activity (HCT-116 [1]) | Activity (A549 [2]) | Activity (4T1 [3]) | Activity (HepG2 [4]) | Activity (HCT-116 [5]) | Activity (A549 [6]) | Activity (4T1 [7]) | Activity (HepG2 [8]) | Drug uptake [9] | Activity (HCT-116 [10]) | Activity (A549 [11]) | Activity (BXPC-3 [12]) | Activity (HepG2 [13]) | Activity (4T1 [14]) | Activity (HCT-116 [15]) | Activity (A549 [16]) | Activity (BXPC-3 [17]) | Activity (HepG2 [18]) | Activity (4T1 [19]) | Activity (Albumin [28]) | other results
CCc1c2c(nc3ccc(OCc4ccc(O[C@@H]5O[C@H](C(=O)O)[C@@H](O)[C@H](O)[C@H]5O)c(NC(=O)CCNC(=O)COCCOCCNC(=O)COCCOCCNC(=O)CC[C@H](NC(=O)CCCCCCCCCCCCCCCCC(=O)O)C(=O)O)c4)cc13)-c1cc3c(c(=O)n1C2)COC(=O)[C@]3(O)CC | Not active; Compound Showed Lower Cytotoxicity Compared To Sn38 | Not active; Compound Showed Lower Cytotoxicity Compared To Sn38 | Not active; Compound Showed Lower Cytotoxicity Compared To Sn38 | Not active; Compound Showed Lower Cytotoxicity Compared To Sn38 | Active | Active | Active | Active | Active | inactive | inactive | inactive | inactive | inactive | Active | Active | Active | Active | Active | 95% | half-life [20]: 3.65 h; Activity (HCT-116 [21]): inactive; Activity [22]: Toxic; Activity (HCT-116 [23]): Active; Activity [24]: Non-toxic; Activity [25]: Non-toxic; Activity [26]: Non-toxic; Activity [27]: Non-toxic; Activity (Albumin [29]): 94%; Drug metabolism [30]: metabolite_notdetected
CCc1c2c(nc3ccc(OCc4ccc(O[C@@H]5O[C@H](C(=O)O)[C@@H](O)[C@H](O)[C@H]5O)c(NC(=O)CCNC(=O)CCCCCN5C(=O)C=CC5=O)c4)cc13)-c1cc3c(c(=O)n1C2)COC(=O)[C@]3(O)CC | Not active; Compound Showed Lower Cytotoxicity Compared To Sn38 | Not active; Compound Showed Lower Cytotoxicity Compared To Sn38 | Not active; Compound Showed Lower Cytotoxicity Compared To Sn38 | Not active; Compound Showed Lower Cytotoxicity Compared To Sn38 | Active | Active | Active | Active | Active | inactive | inactive | inactive | inactive | inactive | Active | Active | Active | Active | Active | 99% | Activity [31]: Non-toxic; Activity [32]: Non-toxic; Activity (BXPC-3 [33]): 8.97%; Activity [34]: Non-toxic; Activity [35]: Non-toxic; Activity [36]: Non-toxic; Activity [37]: Non-toxic; Activity [38]: Non-toxic; Drug metabolism [30]: metabolite_notdetected
